Here are results for 8 compounds from patent publication US8802138B2, “Methods and compositions for improved deliver, expression or activity of RNA interference agents” (priority 2009, dated 2014).

“Also recorded” adds a separate entry of the source.

The subject of series [1] is Hs766T, MCF7 and PC3 cells. As to the kind of experiment: siGLO release after pretreatment with enabler agent, confocal fluorescence microscopy. Type of series: cell-based, human. The settings on record: agent 4 hours, then liposomal siGLO (DC-RNAi) 6 hours. As to the method: (§1) The effectiveness of RIDES in enhancing the intracellular bioavailability of RNAi (i.e., promoting the delivery of RNAi to the cytosol and the release of RNAi from liposomes, endosomes or lysosomes) was studied by monitoring the intracellular trafficking and locations of lipid vectors and RNAi using confocal fluorescence microscopy. […] For monitoring the location of liposomes, rodamine-labeled lipids (red fluorescence) was added to the liposome during liposome preparation. Internalization of siGLO-containing liposomes into the cytosol of a cell yields punctuated red and green fluorescence signals.
Three studies were conducted using siGLO as the RNAi. The lipid vector was the DC liposomes. The study was performed in one or more of three human tumor cell lines, i.e., pancreatic Hs766T, breast cancer MCF7, and prostate cancer PC3.
The first study evaluated the effects of pretreatment with enabler agents. […] Additional cytotoxic agents not acting through tubulin interaction or topoisomerase inhibition, i.e., cisplatin and 5-fluorouracil, were included as side-by-side comparisons. Cells were treated with one of these agents for 4 hours, followed by incubation with liposomal siGLO for 6 hours. […] After pretreatment with enabler agent, cells were washed with cold FBS-free medium for 3 times, fixed with formalin, stained with the nucleus dye DRAQ5, and examined using confocal fluorescence microscopy. […] Because only the free siGLO (not embedded in liposomes) can enter the nucleus, the nuclear accumulation of siGLO indicates the release of RNAi from the liposomes, endosomes, or lysosomes.

In series [2] the test system is prostate cancer PC3 cells. As to the kind of experiment: siGLO release with concurrent enabler treatment, confocal microscopy. Type of series: cell-based, human. The settings on record: agent concurrent with the siGLO treatment. The procedure:
as §1
The study was performed in prostate cancer PC3 cells.

In series [3] the test system is HS766T cells. The experiment in a line: Cytotoxicity of 4 hour paclitaxel treatment, MTT assay. Type of series: cell-based, human. The settings on record: 10 nM for 4 hours. As to the method:
(§2) In vivo antitumor activity was measured in tumor-bearing animals. In vitro antitumor activity was measured in cultured cells using the microtetrazolium assay (MTT). This assay measures the ability of cells to reduce the MTT dye, and is generally used as a measurement of the total cell number.

The next series deals with prostate PC3. As to the kind of experiment: Paclitaxel cytotoxicity, MTT assay. Type of series: cell-based. The settings on record: Homo sapiens, read-out: 50% inhibition of IC50 (nM); PC3, 48 hours.
A further series relates to pancreatic HS766T. As to the kind of experiment: Paclitaxel cytotoxicity, MTT assay. Type of series: cell-based, human. As to the method: as §2
(§3) This was evaluated in porcine arterial smooth muscle cells; the duration of drug treatment was 36 hours. […] Cytotoxicity was measured using the using the MTT assay.
For orientation: Tetrazolium dyes change colour on reduction, which living cells bring about.

For a further series, the system named is breast MCF7 cells. The experiment in a line: Paclitaxel cytotoxicity, MTT assay. Type of series: cell-based, human.
In series [4] the test system is porcine arterial smooth muscle cells. As to the kind of experiment: Paclitaxel cytotoxicity, MTT assay, normal cells. In kind it is cell-based. As to the method: as §2, §3
For series [5], the system named is HS766T cells. The experiment in a line: Concentration-dependence of paclitaxel effect on siGLO transfection. Type of series: cell-based, human. The note with it: 10 and 50 nM for 4 hours. The procedure:
as §1

Where [6] appears, read: concentration time product producing 50% cytotoxicity.

Consider `O=c1[nH]cc(F)c(=O)[nH]1` [5-fluorouracil], for which the “nuclear accumulation of siGLO (release of RNAi from liposomes, endosomes or lysosomes)” value in series [1] is recorded as “did not change the punctated pattern of siGLO localization; also recorded: ineffective”.
On to `N.N.[Cl][Pt][Cl]` [cisplatin], for which the “nuclear accumulation of siGLO (release of RNAi from liposomes, endosomes or lysosomes)” value in series [1] was “did not change the punctated pattern of siGLO localization; also recorded: ineffective”. The “nuclear accumulation of siGLO” value in series [2] was “ineffective”.
Regarding `COc1cc2c(c(OC)c1OC)-c1ccc(OC)c(=O)cc1[C@@H](NC(C)=O)CC2` [colchicine], the “nuclear accumulation of siGLO (release of RNAi from liposomes, endosomes or lysosomes)” value in series [1] is given as “induced nuclear accumulation of green fluorescence signals”.
As to `CC(=O)O[C@@]12CO[C@@H]1C[C@H](O)[C@@]1(C)C(=O)[C@H](O)C3=C(C)[C@@H](OC(=O)[C@H](O)[C@@H](NC(=O)OC(C)(C)C)c4ccccc4)C[C@@](O)([C@@H](OC(=O)c4ccccc4)[C@H]21)C3(C)C` [docetaxel], the “nuclear accumulation of siGLO (release of RNAi from liposomes, endosomes or lysosomes)” value in series [1] is “induced nuclear accumulation of green fluorescence signals”.
On the same count and under the same terms, next, `COc1cccc2c1C(=O)c1c(O)c3c(c(O)c1C2=O)C[C@@](O)(C(=O)CO)C[C@@H]3O[C@H]1C[C@H](N)[C@H](O)[C@H](C)O1` [doxorubicin]: “induced nuclear accumulation of green fluorescence signals”.
In the case of `COC(=O)Nc1nc2ccc(C(=O)c3cccs3)cc2[nH]1` [nocodazole], the “nuclear accumulation of siGLO (release of RNAi from liposomes, endosomes or lysosomes)” value in series [1] is given as “induced nuclear accumulation of green fluorescence signals”. Also, the “nuclear accumulation of siGLO” value in series [2] is “extensive nuclear accumulation of siGLO”.
As for `CC(=O)O[C@H]1C(=O)[C@@]2(C)[C@H]([C@H](OC(=O)c3ccccc3)[C@]3(O)C[C@H](OC(=O)[C@H](O)[C@@H](NC(=O)c4ccccc4)c4ccccc4)C(C)=C1C3(C)C)[C@]1(OC(C)=O)CO[C@@H]1C[C@@H]2O` [paclitaxel], the cytotoxicity entry in the series with HS766T cells [3] is reported as “no apparent toxicity”. In addition, the IC50 in the series on prostate PC3 came to 15.5 nM; in the series with pancreatic HS766T (Homo sapiens, read-out: 50% inhibition of IC50 (nM), 48 hours), 12.7 nM; in the series with breast MCF7 cells (Homo sapiens, read-out: 50% inhibition of IC50 (nM), MCF7, 48 hours) it was 5.2 nM; in series [4] (Sus scrofa, read-out: 50% inhibition of IC50 (nM), 36 hours) it was 113 nM. The “CxT (nMxhr)” value in the series with pancreatic HS766T (setting [6]) is given as 610 nMxhr; in the series with breast MCF7 cells (concentration time product producing 50% cytotoxicity, MCF7) it was 250 nMxhr; in series [4] (setting [6]), 4068 nMxhr. For the same compound, the “nuclear accumulation of siGLO (release of RNAi from liposomes, endosomes or lysosomes)” value in series [1] is “induced nuclear accumulation of green fluorescence signals”. The “nuclear accumulation of siGLO” value in series [2] is given as “extensive nuclear accumulation of siGLO”. The “appearance of siGLO in the nucleus” value with HS766T cells [5] was “enhanced the appearance of siGLO in the nucleus at both concentrations; also recorded: effective”.
Regarding `CC[C@]1(O)C[C@H]2CN(CCc3c([nH]c4ccccc34)[C@@](C(=O)OC)(c3cc4c(cc3OC)N(C=O)[C@H]3[C@@](O)(C(=O)OC)[C@H](OC(C)=O)[C@]5(CC)C=CCN6CC[C@]43[C@@H]65)C2)C1` [vincristine], the “nuclear accumulation of siGLO (release of RNAi from liposomes, endosomes or lysosomes)” value in series [1] is listed as “induced nuclear accumulation of green fluorescence signals”.

By IC50 is commonly meant the point on the concentration scale where inhibition reaches its midpoint.
